The record followed here is US8034790B2, “Use of MDA-7 to inhibit pathogenic infectious organisms” (priority 2003, dated 2011).

One series deals with endostatin. Nature of the series: Endostatin secretion from Ad-endostatin treated H1299 cells. Particulars: H1299 cells treated with Ad-endostatin. The series is classed as cell-based, human. The text has this:
To address whether apoptosis induction is due to intracellular MDA-7 or is simply a non-specific effect due to protein accumulation in the ER, we performed similar experiments using an adenoviral vector encoding endostatin as a control glycosylated secreted protein.

The test system of the next series is MDA-7 protein. In words: MDA-7 protein expression and secretion by western blot (cell lysates and supernatants). The settings on record: Ad-mda7 treated H1299 cells. In kind it is cell-based, human. How it is done:
Cell lysates ([…]) were suspended in 500 μl of Laemmli buffer with 5% 2-mercapto-ethanol (2ME) or supernatants (1:1 mixing with Laemmli buffer+2ME), were analyzed by SDS gel electrophoresis and western blot analysis. Expression of various proteins was determined by using the following primary antibodies: rabbit or mouse anti-human MDA-7 (Introgen Therapeutics, Inc), goat anti-human BiP/GRP-78, rabbit anti-human GADD34, goat anti-human PP2A, goat anti-human PERK, rabbit anti-human XBP-1 (Santa Cruz Biotechnologies, Santa Cruz, Calif.), rabbit anti-human caspase 7 and caspase-9 (Cell Signaling Technology, Beverly, Mass.). Antibodies against beta-actin, and alpha-tubulin were purchased from Sigma. Following incubation with horseradish peroxidase-labeled secondary antibody (Amersham Biosciences, Piscataway, N.J.) the proteins were visualized on enhanced chemiluminescence film (Hyperfilm, Amersham Biosciences, Piscataway, N.J.) by application of Amersham's enhanced chemiluminescence western blotting detection system. All westerns were performed 2-4 times.
H1299 cells were treated with 1000 vp/cell Ad-mda7 and the indicated concentrations of tunicamycin. Cells were harvested 24 hr later and analyzed for intracellular and secreted MDA-7 protein by western blot and apoptosis via Annexin V assay. Control cultures of cells treated with only tunicamycin were also assessed for apoptosis (Tun. Toxicity).

The next series concerns H1299 cells. In words: Cell viability / cell killing (trypan blue exclusion) in H1299 cells. In kind it is cell-based, human. Particulars: for effect on cell killing by Ad-mda7 / cytotoxicity of secretion inhibitor alone / effect on cell killing due to Ad-luc or Ad-endostatin / cell killing by MDA-7 protein applied to cells: H1299 cells; for effect on cell killing by Ad-mda7: combination of Ad-mda7 and secretion inhibitor; for cytotoxicity of secretion inhibitor alone: dose that blocks MDA-7 secretion; for effect on cell killing due to Ad-luc or Ad-endostatin: p>0.05; for cell killing by MDA-7 protein applied to cells: viability after 3 days, EM 20-100 ng/ml, BacM 100 ng/ml, supernatant 10 and 100 ng/ml. The method, then: Construction and purification of replication-deficient human type 5 Adenovirus (Ad5) carrying the mda-7 gene was described previously (Mhashilkar et al., 2001). Cell lines were infected with Ad-mda7 or Ad-luc with indicated MOIs. Cells were plated at 10^5-10^6 cells/well in a 6-well plate format for protein expression, trypan-blue exclusion assay or apoptosis assays. For transfection with pShooter vectors, 1 μg of plasmid DNA was used to transfect cells using lipofectamine protocol as described (Mhashilkar et al., 2003).
Cell viability was determined by trypan blue exclusion assay or Live/Dead assay. Cells were trypsinized and a small aliquot was suspended 1:1 volume with 0.1% trypan blue. Total cell numbers and cell viability counts were assessed using a hemocytometer under light microscopy. For Live/Dead assay (Molecular Probes, Eugene Oreg.) cells were plated in chamber slides (Nunc) and then treated with pShooter-plasmid vectors or with Ad− vectors. Two-four days later the cells were treated with the probes, Calcein AM and Ethidium homodimer (both at 5 uM final conc. in PBS), for 30 minutes and then live (green) and dead (red) cells were counted via fluorescence microscopy. All assays were performed at least three times.

With `C[C@H]1CCC/C=C/[C@@H]2C[C@H](O)C[C@H]2[C@H](O)/C=C/C(=O)O1` [BFA, Brefeldin A], the “effect on endostatin secretion” value with endostatin is “potently blocked endostatin secretion”. Besides, in the series with MDA-7 protein (1 μg/ml BFA), the “inhibition of MDA-7 secretion” value is recorded as “completely block MDA-7 secretion”. Also, the “concentration required to completely block secretion of MDA-7 protein” value with MDA-7 protein was “less than 1 μg/ml”. For the same molecule, in the series with H1299 cells, the “effect on cell killing by Ad-mda7” value is given as “slightly enhanced cell killing”, the “cytotoxicity of secretion inhibitor alone” value is on record as “not cytotoxic” and the “effect on cell killing due to Ad-luc or Ad-endostatin” value is reported as “Neither BFA nor tunicamycin significantly modulated cell killing”.
Consider Tunicamycin, for which the “effect on endostatin secretion” value with endostatin was “potently blocked endostatin secretion”. Also, in the series on MDA-7 protein (1 μg/ml tunicamycin), the “reduction of secreted MDA-7” value is on record as over 60%. The “inhibition of MDA-7 secretion” value in the series with MDA-7 protein (2 μg/ml tunicamycin) is reported as “completely blocked secretion”. In the series with H1299 cells, the “effect on cell killing by Ad-mda7” value is listed as “slightly enhanced cell killing”, the “cytotoxicity of secretion inhibitor alone” value is “not cytotoxic” and the “effect on cell killing due to Ad-luc or Ad-endostatin” value is “Neither BFA nor tunicamycin significantly modulated cell killing”.

B1: MDA-7 containing supernatant: MDA-7 containing supernatant from stably expressing 293-mda7 cells (protein, UniProt Q13007 52-206, looked up)
Interleukin-24: QEFHFGPCQVKGVVPQKLWEAFWAVKDTMQAQDNITSARLLQQEVLQNVSDAESCYLVHTLLEFYLKTVFKNYHNRTVEVRTLKSFSTLANNFVLIVSQLQPSQENEMFSIRDSAHRRFLLFRRAFKQLDVEAALTKALGEVDILLTWMQKFYKL
modifications: cell culture supernatant
notes: MDA-7 containing supernatant from stably expressing 293-mda7 cells
As to B1, the “cell killing by MDA-7 protein applied to cells” value in the series on H1299 cells was “did not induce cell death”. In the series on H1299 cells (supernatant from stably expressing 293-mda7 cells applied to H1299 cells, 10 and 100 ng/ml, 3 days), the “cell death above background levels” value is reported as under 10%.

B2: BacM: MDA-7 protein made in insect cells using baculovirus vectors (protein, UniProt Q13007 52-206, looked up)
Interleukin-24: QEFHFGPCQVKGVVPQKLWEAFWAVKDTMQAQDNITSARLLQQEVLQNVSDAESCYLVHTLLEFYLKTVFKNYHNRTVEVRTLKSFSTLANNFVLIVSQLQPSQENEMFSIRDSAHRRFLLFRRAFKQLDVEAALTKALGEVDILLTWMQKFYKL
modifications: insect cell expressed
notes: MDA-7 protein made in insect cells using baculovirus vectors
Turning to B2, the “cell killing by MDA-7 protein applied to cells” value with H1299 cells is reported as “failed to induce significant killing”.

B3: MDA-7: protein of 206 amino acids (SEQ ID NO: 2) encoded by mda-7 cDNA (protein, listed as Homo sapiens)
chain: MNFQQRLQSLWTLARPFCPPLLATASQMQMVVLPCLGFTLLLWSQVSGAQGQEFHFGPCQVKGVVPQKLWEAFWAVKDTMQAQDNITSARLLQQEVLQNVSDAESCYLVHTLLEFYLKTVFKNYHNRTVEVRTLKSFSTLANNFVLIVSQLQPSQENEMFSIRDSAHRRFLLFRRAFKQLDVEAALTKALGEVDILLTWMQKFYKL
For the molecule B3, in the series “Anti-angiogenic activity”, the “anti-angiogenic activity, potency relative to endostatin” value stood at 50 fold. In addition, the cell killing result with H1299 cells (H1299 cells treated with MDA-7 protein and then transduced with Ad-luc) is recorded as “Only background killing was observed”.
